Experimental data from US20060263294A1, “Tumor targeting agents and uses thereof” (KARYON OY, priority 2002, published 2006).
Bridge positions count the residues as written; N and C are the ends. Peptide text beside a SMILES is read from it. * marks the point of attachment. X1 = COc1cccc2c1C(=O)c1c(O)c3c(c(O)c1C2=O)C[C@@](C)(/C(CO)=N/OCC(=O)*)C[C@@H]3OC1CC(N)C(O)C(C)O1

System: C8161M/T1 melanoma cells tumours
Assay: Therapeutic effect of targeting agent comprising cytotoxic effector unit on melanoma tumors
Assay type: in vivo, Athymic-nu mice
Conditions: 1,43 mg/kg i.v. twice a week, five doses; s.c. C8161M/T1 melanoma; FIG. 1
Procedure: 1 million C8161M/T1 melanoma cells were injected subcutaneously into flank of eight Athymic-nu mice and tumours were allowed to grow for one week. The mice were then divided into three groups those received the following treatments: • Group DMEM: two mice, DMEM only • Group Dox: two mice, 1,43 mg/kg doxorubicin dissolved in DMEM • Group pept+dox: four mice, 1,43 mg/kg Dxrb-Aoa-DLRSK (doxorubicin linked to targeting mofif LRS) dissolved in DMEM (dose equimolar to Group Dox)
Treatments were administered i.v. twice a week (Tuesdays and Fridays), total of five doses were injected. Tumours were measured with a calliper in two perpendicular directions on each injection day and on the day the animals were sacrificed. Tumour volume was calculated by the formula for ellipsoid: Volume=(length×width^2)×0.5

## COc1cccc2c1C(=O)c1c(O)c3c(c(O)c1C2=O)C[C@@](C)(/C(CO)=N/OCC(=O)N[C@H]1CC(=O)NCCCC[C@@H](C(=O)O)NC(=O)[C@H](CO)NC(=O)[C@H](CCCNC(=N)N)NC(=O)[C@H](CC(C)C)NC1=O)C[C@@H]3OC1CC(N)C(O)C(C)O1 (some centres unmarked) [Dxrb-Aoa-DLRSK] (X1-DLRSK-OH; lactam 1-5)
  selective targeting to melanoma tumor in vivo: selectively targets to melanoma tumor in vivo
  therapeutic effect (tumour volume) compared with doxorubicin: significantly increases the therapeutic effect of doxorubicin
